Laboratory results published in US8008258B2, “Cop 1 for treatment of inflammatory bowel diseases” (Yeda Research and Development Co. Ltd., priority 2003, dated 2011).
Marks after values point to notes of the source that are not given here.

Test system: TNBS-induced colitis
Assay: TNBS-induced colitis in BALB/c mice, oral GA treatment
Assay type: in vivo
Parameters: key to Macroscopic scoring of colon damage: Ulceration (max 10): 0 = completely normal, 10 = most severe ulceration; key to Macroscopic scoring of colon damage: Adhesion (max 2): adhesions score 0 to 2; key to Macroscopic scoring of colon damage: Diarrhea (max 1): diarrhea score 0 to 1; key to Macroscopic scoring of colon damage: Thickness (max 1): thickness score 0 to 1
Protocol: Induction of cholitis in mice. TNBS-colitis was induced by rectal instillation of 2,4,6-trinitrobenzene sulfonic acid 5% (w/v), mixed with an equal volume of ethanol, into anesthetized mice (100 μl/mouse). Each treatment group included 6-12 mice. Mice that died before day 4 were considered as treatment casualties and were not taken into consideration.
Assessment of colitis. Weight changes and survival were monitored daily. Five to eight days following TNBS instillation, mice were sacrificed and macroscopic as well as microscopic colonic damage was evaluated.
Macroscopic colonic scoring. Gross colonic damage was graded according to Reuter et al. (1996), using the combined values of the four standard macroscopic parameters: degree of colonic ulcerations (scale from 0—completely normal, to 10—most severe); intestinal and peritoneal adhesions (0 to 2); diarrhea (0 to 1); and thickness (0 to 1). The total score is the arithmetic sum of the four scores. The evaluation was performed in a blind procedure.
Microscopic scoring. Proximal, medial, and distal portions of colon were fixed in 10% phosphate-buffered formalin. Paraffin-embedded sections were stained with hematoxylin and eosin. The degree of histological damage and inflammation was graded according to Elson et al. (1996) using the combined values of the four microscopic parameters: extent (scale from 0—completely normal, to 2—involving more than one segment); inflammation (0—none to 3—severe); damage (0 to 3—severe transmural); and regeneration (0—complete re-eptihelization to 3—none). The total score is the arithmetic sum of the four scores. The evaluation was performed in a blind procedure.
Oral treatment—250 μg/day in PBS, fed by gastric intubation with an 18-gauge stainless steel feeding needle. Unless otherwise stated, feedings were performed on days-7, -5, -3, -1, 0, 2, 4 and 6, relative to the day of TNBS instillation.
Colitis was induced by TNBS in 50% ethanol. […] Colonic scoring was performed 7 or 8 days after disease induction. Mice that died during the first 2 days (usually around 20% in all groups) were considered as treatment casualties and thus are not presented; each group contained 4-7 mice that survived after day 2.

[1] = Average of three experiments, GA oral 250 μg/mouse every other day from day −7, scoring 7 or 8 days after induction
[2] = Exp. No. 1, GA oral 250 μg/mouse every other day from day −7, scoring 7 or 8 days after induction
[3] = Exp. No. 2, GA oral 250 μg/mouse every other day from day −7, scoring 7 or 8 days after induction
[4] = Exp. No. 3, GA oral 250 μg/mouse every other day from day −7, scoring 7 or 8 days after induction
[5] = GA no colitis (GA oral without TNBS induction)
[6] = Timing study, GA oral 250 μg/mouse every other day starting day 0, 8 feedings
[7] = Timing study, GA oral 250 μg/mouse every other day starting day +2, 6 feedings
[8] = Timing study, GA oral 250 μg/mouse every other day starting day −3, 8 feedings
[9] = Timing study, GA oral 250 μg/mouse every other day starting day −7, 8 feedings

Substance: glatiramer acetate [GA]
- Macroscopic scoring of colon damage: Thickness (max 1) [1]: 0.0
- Macroscopic scoring of colon damage: Ulceration (max 10) [1]: 2.1
- Macroscopic scoring of colon damage: Adhesion (max 2) [2]: 0.6
- Macroscopic scoring of colon damage: Diarrhea (max 1) [2]: 0.0
- Macroscopic scoring of colon damage: Thickness (max 1) [2]: 0.0
- Macroscopic scoring of colon damage: Total Score (max 14) [2]: 1.6*
- Macroscopic scoring of colon damage: Ulceration (max 10) [2]: 1.0
- Macroscopic scoring of colon damage: Adhesion (max 2) [3]: 0.5
- Macroscopic scoring of colon damage: Diarrhea (max 1) [3]: 0.5
- Macroscopic scoring of colon damage: Thickness (max 1) [3]: 0.0
- Macroscopic scoring of colon damage: Total Score (max 14) [3]: 4.4*
- Macroscopic scoring of colon damage: Ulceration (max 10) [3]: 3.4
- Macroscopic scoring of colon damage: Adhesion (max 2) [4]: 0.1
- Macroscopic scoring of colon damage: Diarrhea (max 1) [4]: 0.0
- Macroscopic scoring of colon damage: Thickness (max 1) [4]: 0.0
- Macroscopic scoring of colon damage: Total Score (max 14) [4]: 2.1*
- Macroscopic scoring of colon damage: Ulceration (max 10) [4]: 2.0
- Macroscopic scoring of colon damage: Adhesion (max 2) [5]: 0.0
- Macroscopic scoring of colon damage: Diarrhea (max 1) [5]: 0.0
- Macroscopic scoring of colon damage: Thickness (max 1) [5]: 0.0
- Macroscopic scoring of colon damage: Total Score (max 14) [5]: 0.0
- Macroscopic scoring of colon damage: Ulceration (max 10) [5]: 0.0
- Reduction in disease severity (total macroscopic score) versus control (GA oral feedings started seven days before TNBS, total of 8 feedings every other day): 5.2 fold
- Reduction in disease severity (total macroscopic score) versus control (GA oral treatment started on the day of TNBS inoculation, or two days after disease induction): 2.2 fold
- Reduction in disease severity (total macroscopic score) versus control (GA oral treatment started three days before induction): 2.75 fold
- Mortality due to the disease process (GA oral, 8 days after induction): 20%
- Reduction of average histological score versus colitis group (GA oral, day 7, p=0.007): 2.8 folds
- Average histological score (from a maximal score of 12.0) (GA oral, mice surviving till day 7): 2.8
- Histological or macroscopic damage (GA treatment without TNBS induction): did not result in any histological or macroscopic damage
- Macroscopic scoring of colon damage: Adhesion (max 2) [6]: 0.7
- Macroscopic scoring of colon damage: Diarrhea (max 1) [6]: 0.0
- Macroscopic scoring of colon damage: Thickness (max 1) [6]: 0.0
- Macroscopic scoring of colon damage: Total Score (max 14) [6]: 5.0*
- Macroscopic scoring of colon damage: Ulceration (max 10) [6]: 4.3
- Macroscopic scoring of colon damage: Adhesion (max 2) [7]: 0.3
- Macroscopic scoring of colon damage: Diarrhea (max 1) [7]: 0.0
- Macroscopic scoring of colon damage: Thickness (max 1) [7]: 0.0
- Macroscopic scoring of colon damage: Total Score (max 14) [7]: 5.0*
- Macroscopic scoring of colon damage: Ulceration (max 10) [7]: 4.7
- Macroscopic scoring of colon damage: Adhesion (max 2) [8]: 0.5
- Macroscopic scoring of colon damage: Diarrhea (max 1) [8]: 0.0
- Macroscopic scoring of colon damage: Thickness (max 1) [8]: 0.0
- Macroscopic scoring of colon damage: Total Score (max 14) [8]: 4.0*
- Macroscopic scoring of colon damage: Ulceration (max 10) [8]: 3.5
- Macroscopic scoring of colon damage: Adhesion (max 2) [9]: 0.1
- Macroscopic scoring of colon damage: Diarrhea (max 1) [9]: 0.0
- Macroscopic scoring of colon damage: Thickness (max 1) [9]: 0.0
- Macroscopic scoring of colon damage: Total Score (max 14) [9]: 2.1*
- Macroscopic scoring of colon damage: Ulceration (max 10) [9]: 2.0
- Decrease of total macroscopic damage versus control (average of three experiments, GA oral 250 μg/mouse, alternate days from day −7, 8 feedings): 3.8 fold
- Macroscopic grade of representative colons (FIG. 1A) (colons from two TNBS-induced mice treated orally with GA (0.25 mg/mouse, 8 feedings), 7 days after TNBS, focal hyperemia only): 1
- Maximum weight loss (of body weight) (mice fed with GA, by day 3 after TNBS inoculation): 5%
- Complete restoration of original weight (mice fed with GA, day after TNBS inoculation): ≤ 5 days
